Patent US20230364096A1, “USE OF A COMBINATION COMPRISING A BTK INHIBITOR FOR TREATING CANCERS” (BEIGENE SWITZERLAND GMBH, priority 2016, published 2023)

Experiments:
[1] = system: REC-1/NK92MI MCL xenograft; assay: Human REC-1/NK92MI mantle cell lymphoma xenograft model; assay type: in vivo, NOD/SCID mice; details: Compound 1 2.5 mg/kg p.o. BID, obinutuzumab 2 mg/kg i.p. QW
Protocol: REC-1 cells were cultured in RPMI1640 complete medium supplemented with 10% (v/v) fetal bovine serum, and 100 µg/mL of penicillin and streptomycin. NK92MI/CD16V cell line, overexpressing CD16 and FcRγ chain, was established from parental cell line NK92MI. The cells were maintained in MEM alpha supplemented with 0.2 mM inositol; 0.1 mM 2-mercaptoethanol; 0.02 mM folic acid; 1×NEAA; adjust to a final concentration of 20% (v/v) fetal bovine serum and 100 µg/mL of penicillin and streptomycin. […]
(§1) On day 3 after inoculation, animals were randomly divided into four groups with 12 mice per group. […] Treatments were administered in a volume of 10 mL/kg body weight, assessed immediately before dosing and the volume dosed was adjusted accordingly. […] After implantation, primary tumor volume was measured in two dimensions using a calliper.
(§2) Individual body weight was recorded twice weekly, with mice being monitored daily for clinical signs of toxicity for the duration of the study. […]
Tumor volume was calculated using the formula: V = 0.5 × (a × b^2) where a and b are the long and short diameters of the tumor, respectively. Tumor growth inhibition (TGI) was calculated using the following formula: […]

TMD-8 DLBCL xenograft = assay: Human TMD-8 DLBCL xenograft model; assay type: in vivo, mice; details: for Tumor growth inhibition (TGI): day 46, Compound 1 7.5 mg/kg p.o. BID, obinutuzumab 10 mg/kg i.p. QW
Protocol: (§3) TMD-8 DLBCL cells were cultured in RPMI1640 complete medium supplemented with 10% (v/v) fetal bovine serum, and 100 µg/mL of penicillin and streptomycin. On the day of implantation, culture medium was replaced with fresh medium. Four hours later, media was removed and cells were collected as described above. Cells were re-suspended in cold (4° C.) PBS and same volume of matrigel was added to give a final concentration of 5×10^7 cells/mL for TMD-8 cells. Re-suspended cells were placed on ice prior to inoculation. The right flank region of each mouse was cleaned with 75% ethanol prior to cell inoculation. Animals were then injected subcutaneously with 1×10^7 TMD-8 cells in 200 µl of cell suspension in the right front flank via a 26-gauge needle.
On day 7 after inoculation, animals were randomly divided into 4 groups with 10 mice per group. […] Treatments were administered in a volume of 10 mL/kg body weight, assessed immediately before dosing and the volume dosed was adjusted accordingly. Compound 1 was administered by oral gavage (p.o.) twice daily (BID) and obinutuzumab was administered by intraperitoneal (i.p.) injection once every week (QW). After implantation, primary tumor volume was measured in two dimensions using a calliper.
(§4) Mice were euthanized using carbon dioxide when their tumor volume reached 2,500 mm^3 after twice measurements, the tumor was ulcerated, or body weight loss exceeded 20%.
(§5) Tumor volume was calculated using the formula: V = 0.5 × (a × b^2) where a and b are the long and short diameters of the tumor, respectively. Tumor growth inhibition (TGI) was calculated using the following formula:
(§6) • treated t = treated tumor volume at time t • placebo t = placebo tumor volume at time t

REC-1 MCL xenograft = assay: Human REC-1 MCL xenograft model; assay type: in vivo, mice; details: for tumor growth / anti-tumor effect (in words): Compound 1 7.5 mg/kg BID, Ibrutinib 25 mg/kg BID, rituximab 200 µg/dose i.p. Q4D; for Tumor growth inhibition (TGI): Compound 1 7.5 mg/kg p.o. BID, Ibrutinib 25 mg/kg p.o. BID
Protocol: as §3, with “REC-1” for “TMD-8 DLBCL”, “REC-1.” for “TMD-8 cells.”, “REC-1” for “TMD-8”
On day 9 after inoculation, animals were randomly divided into 6 groups with 7 mice per group. […] After implantation, primary tumor volume was measured in two dimensions using a calliper.
as §4, with “Individual body weight was recorded twice weekly, with mice being monitored daily for clinical signs of toxicity for the duration of the study. Mice” for “Mice”
as §5, §6

[2] = system: obinutuzumab-induced ADCC (IFN-γ secretion); assay: Obinutuzumab-induced ADCC assessed by IFN-γ secretion in co-culture of NK92MI cells and Mino cells; assay type: cell-based, human; details: various concentrations
Protocol: Mino cells were cultured in RPMI1640 complete medium supplemented with 10% (v/v) fetal bovine serum, and 100 µg/mLof penicillin and streptomycin. NK92MI/CD16V cell line, overexpressing CD16 and FcRγ chain, was established from parental cell line NK92MI. The cells were maintained in MEM alpha supplemented with 0.2 mM inositol; 0.1 mM 2-mercaptoethanol; 0.02 mM folic acid; 1 ×NEAA; adjust to a final concentration of 20% (v/v) fetal bovine serum and 100 µg/mL of penicillin and streptomycin.
0130] Mino cells (2×10^4cells/well) as the target cells (T) were plated into 96-well plate in triplicates. Cells were treated with vehicle or various concentrations of BTK inhibitors for one hour, followed by co-seeding with NK92MI cells (4×10^4cells/well, as the effector cells (E)) and co-treatment with vehicle or obinutuzumab (2 ug/well) for additional 24 hrs. After incubation, the cell-free supernatants of each well were collected, and the levels of human IFN-γ were measured using Human IFN-γ ELISA Ready-SET-Go kit.

[3] = system: A431 epidermoid carcinoma allogeneic model (A431 cells and human PBMCs); assay: Human A431 epidermoid carcinoma allogeneic model (Compound 1 and Mab 1); assay type: in vivo, NOD/SCID mice; details: Compound 1 15 mg/kg p.o. BID; Mab 1 10 mg/kg i.p. QW
Protocol: (§7) On the day of implantation, human peripheral blood mononuclear cells (PBMCs) were isolated from 150 mL blood donated by a healthy volunteer. Briefly, peripheral blood was collected into vacuum blood collection tubes containing sodium heparin. PBMCs were separated by density gradient centrifugation using Histopaque-1077 and washed one time by Dulbecco’s Phosphate Buffered Saline (DPBS). The cell pellet was suspended with DPBS at appropriate volume to give a final concentration of 1×10^8 cells/mL and placed on ice prior to inoculation.
(§8) A431 cells were cultured in DMEM complete medium supplemented with 10% (v/v) fetal bovine serum, and 100 µg/mL of penicillin and streptomycin. On the day of implantation, culture medium was replaced with fresh medium. […]
as §1, with “Starting from” for “On”, “0” for “3”, “after cell” for “after”, “10-11” for “12”
as §2
(§9) Tumor volume was calculated using the formula: V = 0.5 × (a × b^2) where a and b are the long and short diameters of the tumor, respectively.

[4] = system: A431 epidermoid carcinoma allogeneic model (A431 cells and human PBMCs); assay: Human A431 epidermoid carcinoma allogeneic model (Compound 1 and pembrolizumab); assay type: in vivo, NOD/SCID mice; details: Compound 1 15 mg/kg p.o. BID; pembrolizumab 10 mg/kg i.p. QW
Protocol: as §7, with “5× 10^7” for “1×10^8”
as §8
as §1, with “Starting from” for “On”, “0” for “3”, “after cell” for “after”, “10-11” for “12”
as §2, §9

[5] = number of mice, 10 mice per group, Compound 1 7.5 mg/kg, obinutuzumab 10 mg/kg

Compound | Tumor growth inhibition (TGI) (TMD-8 DLBCL xenograft) [%] | Objective responses: total (CR+PR) (TMD-8 DLBCL xenograft; [5]) | tumor growth / anti-tumor effect (in words) (REC-1 MCL xenograft) | anti-tumor effect on tumor volume (in words) [4] | Tumor growth inhibition (TGI) (REC-1 MCL xenograft) [%] | other results
obinutuzumab: anti-CD20 mAb (Gazyva®) [reference compound] | 61 | 2 | – | – | – | anti-tumor effect (in words) [1]: no anti-tumor effect; Objective responses: PR (TMD-8 DLBCL xenograft; [5]): 2
rituximab: anti-CD20 mAb [reference compound] | – | – | tumor growth was retarded | – | – | –
C=CC(=O)N1CCC([C@@H]2CCNc3c(C(N)=O)c(-c4ccc(Oc5ccccc5)cc4)nn32)CC1 [Compound 1, (S)-7-(1-acryloylpiperidin-4-yl)-2-(4-phenoxyphenyl)-4,5,6,7-tetra-hydropyrazolo[1,5-a]pyrimidine-3-carboxamide] | 81 | 5 | tumor growth was retarded | Neither Compound 1 nor pembrolizumab showed anti-tumor effect | 85 | inhibition of IFN-γ secretion (in words) [2]: much less effective; Tumor growth inhibition (TGI) ([1]; day 23): 72%; anti-tumor effect on tumor volume (in words) [3]: no anti-tumor effect; Objective responses: CR (TMD-8 DLBCL xenograft; [5]): 1
C=CC(=O)N1CCC[C@@H](n2nc(-c3ccc(Oc4ccccc4)cc3)c3c(N)ncnc32)C1 [Ibrutinib, reference compound] | – | – | – | – | 83 | –
pembrolizumab: humanized monoclonal IgG4 antibody against PD-1 [reference compound] | – | – | – | Neither Compound 1 nor pembrolizumab showed anti-tumor effect | – | –
